The values below come from publication PMC2727956, “Production of the Novel Two-Peptide Lantibiotic Lichenicidin by Bacillus licheniformis DSM 13” (PLoS ONE, 2009).

The test system of test [1] is S. aureus ATCC 33592 (MRSA). As to the kind of experiment: Minimum inhibitory concentrations on agar plates (spotted serial dilutions). The format is cell-based, Staphylococcus aureus. The following applies: S. aureus ATCC 33592 (MRSA) versus S. aureus SG511 (MSSA); serial dilutions in half-concentrated Müller-Hinton broth, 10 µl spotted on Müller Hinton agar lawn, overnight; lichenicidin as isopropanol wash extract. The procedure: (§1) For the comparison of the antibacterial efficacy of lichenicidin to other lantibiotics, Pep5 [52] and nisin [53] were purified as described previously, and mersacidin was obtained from Sanofi-Aventis (Frankfurt, Germany). Serial dilutions of the lantibiotics and the isopropanol wash extract were prepared in half-concentrated Müller-Hinton broth. Fresh colonies of all indicator organisms were used to prepare cell suspensions of about 5×10^6 colony forming units per ml which were employed to inoculate Müller Hinton agar plates. Ten µl of the lantibiotic solutions were spotted onto the indicator plates. The highest dilution yielding a clear inhibition zone on the lawn was detected by visual inspection after incubation overnight.

Test [2] deals with S. aureus LT440/09 (cMRSA). The test is described as above. The note with it: S. aureus LT440/09 (cMRSA) versus S. aureus SG511 (MSSA); serial dilutions in half-concentrated Müller-Hinton broth, 10 µl spotted on Müller Hinton agar lawn, overnight; lichenicidin as isopropanol wash extract. The format is cell-based, Staphylococcus aureus. The procedure: as §1

Where no end group is shown, it is not given here.

Consider “mersacidin: lantibiotic obtained from Sanofi-Aventis (CTFTLPGGGGVCTLTSECIC; also: lantibiotic: thioether bridges, places not given here; UniProt P43683 49-68, looked up)”, for which the “minimum inhibitory concentration on agar plates, fold higher than against S. aureus SG511” value in test [1] is reported as 4.8±1.6 fold; in test [2] it was 4.7±1.6 fold.

Take nisin: the “minimum inhibitory concentration on agar plates, fold higher than against S. aureus SG511” value amounted to 1.83±0.41 fold in test [1] and 2.67±1.03 fold in test [2].
